According to patent US9232796B2, “Herbicidal compositions comprising 4-amino-3-chloro-5-fluoro-6-(4-chloro-2-fluoro-3-methoxyphenyl) pyridine-2-carboxylic acid or a derivative thereof and acetyl-CoA carboxylase (ACCase) inhibitors” (DOW AGROSCIENCES LLC, priority 2012, dated 2016):

Assays:
AVEFA = experiment: Example III postemergence foliar-applied, greenhouse, weeds common to row crops such as corn and soybeans; assay type: in vivo, Avena fatua L.
Excerpt: Seeds or nutlets of the desired test plant species were planted in a soil matrix prepared by mixing a loam or sandy loam soil (e.g., 28.6 percent silt, 18.8 percent clay, and 52.6 percent sand, with a pH of about 5.8 and an organic matter content of about 1.8 percent) and calcareous grit in an 80 to 20 ratio. The soil matrix was contained in plastic pots with a surface area of 84.6 square centimeters (cm^2) and a volume of 560 cubic centimeters (cm^3). When required to ensure good germination and healthy plants, a fungicide treatment and/or other chemical or physical treatment was applied. The plants were grown for 7-31 days (d) in a greenhouse with an approximate 15 hour (h) photoperiod which was maintained at about 23-29° C. during the day and 22-28° C. during the night. Nutrients (Peters Excel® 15-5-15 5-Ca 2-Mg) and water were added on a regular basis and supplemental lighting was provided with overhead metal halide 1000-Watt lamps as necessary. The plants were employed for testing when they reached the first, second, or third true leaf stage.
Treatment requirements were calculated based upon the rates being tested, the concentration of active ingredient or acid equivalent in the formulation, and a 12 mL application volume at a rate of 187 L/ha.
Treatments consisted of the acid or esters of 4-amino-3-chloro-5-fluoro-6-(4-chloro-2-fluoro-3-methoxy-phenyl)pyridine-2-carboxylic acid (Compound A), each formulated as an SC (suspension concentrate), and various herbicidal components alone and in combination.
Other herbicidal components were applied on an acid equivalent basis and included acetyl coA carboxylase (ACCase)-inhibiting herbicide (cyclohexanedione and aryloxyphenoxypropionate chemical classes) quizalofop-p-ethyl formulated as Assure® II.
All stock solutions and applications solutions were visually inspected for compound compatibility prior to application. Compound requirements are based upon a 12 mL application volume at a rate of 187 liters per hectare (L/ha). Formulated compounds were applied to the plant material with an overhead Mandel track sprayer equipped with 8002E nozzles calibrated to deliver 187 L/ha over an application area of 0.503 square meters (m^2) at a spray height of 18 to 20 inches (46 to 50 cm) above the average plant canopy height. Control plants were sprayed in the same manner with the solvent blank.
The treated plants and control plants were placed in a greenhouse as described above and watered by sub-irrigation to prevent wash-off of the test compounds. After approximately 2 weeks, the condition of the test plants as compared with that of the untreated plants was determined visually and scored on a scale of 0 to 100 percent where 0 corresponds to no injury or growth inhibition and 100 corresponds to complete kill.
(§1) Colby's equation was used to determine the herbicidal effects expected from the mixtures (Colby, S. R. 1967. Calculation of the synergistic and antagonistic response of herbicide combinations. Weeds 15:20-22.).
The following equation was used to calculate the expected activity of mixtures containing two active ingredients, A and B: Expected=A+B−(A×B/100)

ECHCO = experiment: Example V post-emergence field trials in direct-seeded rice; assay type: in vivo, Echinochloa colona; conditions: foliar, field trial Tolima, Colombia
Procedure: Multiple field trials were conducted under commercial grower field conditions in Tolima, Colombia; Thessaloniki, Greece; Bianze and Copiano, Italy; and Humphrey, Ark., USA. Trials sites were located in commercially grown fields of direct-seeded rice (Oryza sativa) using standard herbicide small plot research methodology. Plots varied from 2 to 3 meter (m)×5 to 8 m (width×length) with 4 replicates per treatment. The rice crop was grown using normal cultural practices for fertilization, seeding, watering, flooding and maintenance to ensure good growth of the crop and the weeds.
All treatments in the field trials were applied using a backpack compressed air/gas sprayer with flat fan nozzles (80° or 110°) calibrated to apply 187 to 300 L/ha spray volume at approximately 200-400 kPa nozzle pressure. Commercially available products of cyhalofop-butyl (Clincher 180EC, Clincher 200EC, and Clincher SF (285 gr ai/L EC)) were mixed in water at appropriate formulated product rates to achieve the desired rates based on a unit area of application (hectare) to achieve the desired rates as shown. Treatments were rate at 19 to 58 days after application (DAA) as compared to the untreated control plants. Visual weed control was scored on a scale of 0 to 100 percent where 0 corresponds to no injury and 100 corresponds to complete kill. […]

SCPMA = experiment: Example VI in-water applied ternary mixtures, greenhouse, transplanted paddy rice weeds; assay type: in vivo
IPOHE = experiment: Example V (second) postemergence foliar-applied ternary mixtures, greenhouse, direct seeded rice weeds; assay type: in vivo, Ipomoea hederacea Jacq.
Procedure: The treated plants and control plants were placed in a greenhouse as described above and watered by sub-irrigation to prevent wash-off of the test compounds. After approximately 3 weeks, the condition of the test plants as compared with that of the untreated plants was determined visually and scored on a scale of 0 to 100 percent where 0 corresponds to no injury or growth inhibition and 100 corresponds to complete kill.
as §1
The following equation was used to calculate the expected activity of mixtures containing three active ingredients, A, B, and C: Expected=A+B+C−((A×B+A×C+B×C)/100)+(A×B×C/10000)

## CCOC(=O)[C@@H](C)Oc1ccc(Oc2cnc3cc(Cl)ccc3n2)cc1 [Quizalofop-p-ethyl, ethyl(2R)-2-[4-[(6-chloro-2-quinoxalinyl)oxy]phenoxy]propanoate, reference compound]
AVEFA; Quizalofop-p-ethyl 14.25 gae/ha
  Visual Weed Control (%) - 14 DAA AVEFA Obs: 40%

## CCCCOC(=O)[C@@H](C)Oc1ccc(Oc2ccc(C#N)cc2F)cc1 [Cyhalofop-butyl, butyl(2R)-2-[4-(4-cyano-2-fluorophenoxy)phenoxy]propanoate, reference compound]
ECHCO; 280 gai/ha
  Visual Weed Control (%) - 19 DAA ECHCO Obs: 0%
SCPMA; Table 68, cyhalofop-butyl 22.5 gai/ha
  Visual Weed Control (%) - 21 DAA SCPMA Obs: 0%
SCPMA; Table 68, cyhalofop-butyl 45 gai/ha
  Visual Weed Control (%) - 21 DAA SCPMA Obs: 0%
IPOHE; 17.5 gai/ha
  Visual Weed Control (%) - 21 DAA IPOHE Obs: 0%
IPOHE; 35 gai/ha
  Visual Weed Control (%) - 21 DAA IPOHE Obs: 0%
IPOHE; 35 gai/ha, lower sub-table
  Visual Weed Control (%) - 21 DAA IPOHE Obs: 0%
IPOHE; 35 gai/ha, upper sub-table
  Visual Weed Control (%) - 21 DAA IPOHE Obs: 0%

## COc1c(Cl)ccc(-c2nc(C(=O)O)c(Cl)c(N)c2F)c1F [Compound A Acid, 4-amino-3-chloro-6-(4-chloro-2-fluoro-3-methoxyphenyl)-5-fluoropyridine-2-carboxylic acid]
AVEFA; Compound A Acid 3.75 gae/ha
  Visual Weed Control (%) - 14 DAA AVEFA Obs: 0%
AVEFA; Compound A Acid 7.5 gae/ha
  Visual Weed Control (%) - 14 DAA AVEFA Obs: 0%
AVEFA; Compound A Acid 15 gae/ha
  Visual Weed Control (%) - 14 DAA AVEFA Obs: 0%

## COc1c(Cl)ccc(-c2nc(C(=O)OCc3ccccc3)c(Cl)c(N)c2F)c1F [Compound A Benzyl Ester, benzyl ester of 4-amino-3-chloro-5-fluoro-6-(4-chloro-2-fluoro-3-methoxy-phenyl)pyridine-2-carboxylic acid]
ECHCO; 12 gae/ha
  Visual Weed Control (%) - 19 DAA ECHCO Obs: 76%
SCPMA; Table 68, 4 gae/ha
  Visual Weed Control (%) - 21 DAA SCPMA Obs: 0%
SCPMA; Table 68, 8 gae/ha
  Visual Weed Control (%) - 21 DAA SCPMA Obs: 0%
SCPMA; Table 68, 16 gae/ha
  Visual Weed Control (%) - 21 DAA SCPMA Obs: 0%
IPOHE; 2.19 gae/ha, upper sub-table
  Visual Weed Control (%) - 21 DAA IPOHE Obs: 30%
IPOHE; 4.38 gae/ha, upper sub-table
  Visual Weed Control (%) - 21 DAA IPOHE Obs: 38%
IPOHE; 8 ae/ha
  Visual Weed Control (%) - 21 DAA IPOHE Obs: 20%
IPOHE; 8 gae/ha
  Visual Weed Control (%) - 21 DAA IPOHE Obs: 10%
IPOHE; 8 gae/ha, lower sub-table
  Visual Weed Control (%) - 21 DAA IPOHE Obs: 15%
IPOHE; 16 gae/ha
  Visual Weed Control (%) - 21 DAA IPOHE Obs: 30%
IPOHE; 16 gae/ha, lower sub-table
  Visual Weed Control (%) - 21 DAA IPOHE Obs: 33%
AVEFA; Compound A Benzyl Ester 3.75 gae/ha
  Visual Weed Control (%) - 14 DAA AVEFA Obs: 10%
AVEFA; Compound A Benzyl Ester 7.5 gae/ha
  Visual Weed Control (%) - 14 DAA AVEFA Obs: 0%
AVEFA; Compound A Benzyl Ester 15 gae/ha
  Visual Weed Control (%) - 14 DAA AVEFA Obs: 10%
